Laboratory results taken from patent US11911396B2, “Use of compound in preparation of drug for treating cerebral small vessel disease” (GUANGZHOU CELLPROTEK PHARMACEUTICAL CO., LTD, priority 2017, dated 2024).

What was measured:
Iba-1 = Iba-1 immunohistochemical staining of prefrontal cortex brain tissue, acute hypobaric hypoxia model; type: in vivo, cynomolgus monkeys
Source text: FIG. 2. Activation of microglia in the brain tissue of the prefrontal cortex of cynomolgus monkeys. A. Iba-1 immunohistochemical staining of the brain tissue of the prefrontal cortex of cynomolgus monkeys, Iba-1 serves as a marker for microglia activation. The black scale bar is 25 μm and the red scale bar is 200 μm. B. Statistics of Iba-1 relative optical density values. Image pro plus software was used to perform optical density scanning on the immunohistochemical images of each group to obtain the optical density values, which were then normalized with the NN group. NN: Normobaric Normoxia group (n=4); HH: Hypobaric Hypoxia group (n=4); HH+Triol: Hypobaric Hypoxia with Triol administration group (n=3); HH+PROG: Hypobaric Hypoxia with control drug administration group (n=4). […]
The experiment was carried out according to routine immunohistochemical procedures, as follows: the thickness of paraffin sections of prefrontal cortex tissue of cynomolgus monkeys was 5 μm, and fresh paraffin sections were baked overnight at 37° C. […] Imaging: Nikon ECLIPSE Ti-U inverted fluorescence microscope was used to take pictures of the sections in the bright field, by adjusting the appropriate exposure intensity and background white balance, and fixing the shooting adjustments to take pictures of each group of slices from multiple views and by multiples folds. […]

IL-1β = experiment: Western blot of IL-1β in prefrontal cortex brain tissue, acute hypobaric hypoxia model; type: in vivo, cynomolgus monkeys; conditions: FIGS. 3A and 3B
Source text: FIG. 3. […] A. Protein expression of inflammatory factors IL-6, IL-1β and TNF-α in the brain tissue of the prefrontal cortex of cynomolgus monkeys; B. Statistics of protein relative gray scan values. NN: Normobaric Normoxia group (N=3); HH: Hypobaric Hypoxia group (N=3); HH+Triol: Hypobaric Hypoxia with Triol administration group (N=3); HH+PROG: Hypobaric Hypoxia with control drug administration group (N=3). The gray value was obtained by scanning with Image Lab software, and the relative value was obtained after normalizing with α-Tubulin. One-way ANOVA analysis and Dunnutt's t test were used to perform statistical tests, and in the latter each group was compared with the HH group, *, p<0.05; **, p<0.01.
1) Preparation of protein samples (see the instructions of M-PER protein lysate): After the cells had been processed for the specified time, the medium was aspirated and then washed with 4° C. pre-chilled PBS (0.01M pH7.2˜7.3) for 3 times. […] 2) BCA protein quantification (see the instructions of BCA protein quantification kit): corresponding components were added to a 96-well detection plate by the ratio of quantification reagent A solution:B solution:ddH2O:protein=100:2:7.5:5, and albumin standards diluted in gradient concentration were added to draw a standard curve. […] After the reaction, the absorbance of each well at a wavelength of 562 nm was detected using a microplate reader. […]

SMILES: C[C@@]12CCCC1C1C[C@@H](O)[C@@]3(O)C[C@@H](O)CC[C@]3(C)C1CC2 (stereo partly drawn) [Triol, 5α-androst-3β,5,6β-triol]
- number of cells in the activation-like morphology (microglia) (Iba-1; FIG. 2): decreased
- expression of Iba-1 (Iba-1; immunohistochemistry, FIG. 2B): decreased significantly
- expression level of IL-1β (IL-1β): significantly reduced
